Reference: patent publication US8426437B2, “Pyrroloquinoline derivatives and their use as protein kinases inhibitors” (Pierre Fabre Medicament, priority 2005, dated 2013)
Counter-ions that a name gives are not always drawn.

Molecular target: T1, RET (Homo sapiens, UniProt P07949)
T1 construct: purchased Upstate 14-570MG
Experiment: Inhibition of RET kinase activity, recombinant RET method (Kinase-Glo)
Format: biochemical
Details: RET 2 μg/ml, poly-EY4 substrate, 20 μM ATP, two hours at 30° C.
Method in brief: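 Recombinant RET at 2 μg/ml in 20 mM MOPS/NaOH pH 7.0, 1 mM EDTA, 5% glycerol, 0.01% Brij35, 0.1% 2-mercaptoethanol, 1 mg/ml BSA; compounds 10 nM–30 μM final.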

T1 sequence (P07949 29-1114): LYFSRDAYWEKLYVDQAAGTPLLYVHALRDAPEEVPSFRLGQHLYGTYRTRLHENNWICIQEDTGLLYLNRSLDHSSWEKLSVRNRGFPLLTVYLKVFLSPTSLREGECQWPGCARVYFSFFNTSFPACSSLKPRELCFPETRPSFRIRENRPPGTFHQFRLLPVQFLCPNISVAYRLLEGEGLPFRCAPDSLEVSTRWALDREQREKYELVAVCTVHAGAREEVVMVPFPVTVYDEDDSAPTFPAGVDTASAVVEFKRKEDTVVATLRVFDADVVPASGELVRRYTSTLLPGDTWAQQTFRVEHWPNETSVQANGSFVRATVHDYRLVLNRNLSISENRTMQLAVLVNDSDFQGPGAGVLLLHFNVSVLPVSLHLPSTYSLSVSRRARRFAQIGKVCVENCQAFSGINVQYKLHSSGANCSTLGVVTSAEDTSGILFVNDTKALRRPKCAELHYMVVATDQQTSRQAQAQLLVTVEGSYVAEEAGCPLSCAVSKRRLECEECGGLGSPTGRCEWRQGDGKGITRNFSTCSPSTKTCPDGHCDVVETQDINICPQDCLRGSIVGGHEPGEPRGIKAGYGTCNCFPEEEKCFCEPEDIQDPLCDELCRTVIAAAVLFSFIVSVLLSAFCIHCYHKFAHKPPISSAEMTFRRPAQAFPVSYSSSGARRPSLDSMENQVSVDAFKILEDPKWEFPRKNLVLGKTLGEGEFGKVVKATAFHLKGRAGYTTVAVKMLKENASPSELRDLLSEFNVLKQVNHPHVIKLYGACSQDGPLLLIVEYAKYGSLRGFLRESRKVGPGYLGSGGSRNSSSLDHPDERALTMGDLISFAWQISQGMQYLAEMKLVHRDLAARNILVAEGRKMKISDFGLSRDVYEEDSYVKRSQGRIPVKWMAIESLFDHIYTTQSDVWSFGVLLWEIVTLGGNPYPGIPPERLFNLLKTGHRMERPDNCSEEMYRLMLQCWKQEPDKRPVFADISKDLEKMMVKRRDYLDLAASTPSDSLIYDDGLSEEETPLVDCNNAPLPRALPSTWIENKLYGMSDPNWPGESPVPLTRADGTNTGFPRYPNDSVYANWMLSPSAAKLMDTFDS

| SMILES | IC50 |
| --- | --- |
| CCCOC(=O)c1c[nH]c2c(=O)[nH]c3ccc(S(=O)(=O)N(CCOCc4ccccc4)C4CC4)cc3c12 [Compound 181, 8-[(2-Benzyloxy-ethyl)-cyclopropyl-sulfamoyl]-4-oxo-4,5-dihydro-3H-pyrrolo[2,3-c]quinoline-1-propyl carboxylate] | 1000 to 10000 nM |
| CN(c1ccc(F)cc1)S(=O)(=O)c1ccc2[nH]c(=O)c3[nH]cc(C(=O)OCCCNC(=O)OC(C)(C)C)c3c2c1 [Compound 108, 3-tert-Butoxycarbonylamino-propyl 8-[(4-fluorophenyl)-methyl-sulfamoyl]-4-oxo-4,5-dihydro-3H-pyrrolo[2,3-c]quinoline-1-carboxylate] | 10000 to 100000 nM |
| CC(C)(C)OC(=O)N[C@H]1CCN(S(=O)(=O)c2ccc3[nH]c(=O)c4[nH]cc(C(=O)O)c4c3c2)C1 [Compound 165, (S)-8-(3-tert-Butoxycarbonylamino-pyrrolidine-1-sulfonyl)-4-oxo-4,5-dihydro-3H-pyrrolo[2,3-c]quinoline-1-carboxylic acid] | 10000 to 100000 nM |
| CCOC(=O)c1c[nH]c2c(=O)[nH]c3ccc(F)cc3c12 [Compound 99, 8-Fluoro-4-oxo-4,5-dihydro-3H-pyrrolo[2,3-c]quinoline-1-ethyl carboxylate] | 10000 to 100000 nM |
| CCOC(=O)c1c[nH]c2c(=O)[nH]c3ccc(NS(=O)(=O)c4ccc(Cl)s4)cc3c12 [Compound 57, 8-(5-Chloro-thiophene-2-sulfonylamino)-4-oxo-4,5-dihydro-3H-pyrrolo[2,3-c]quinoline-1-ethyl carboxylate] | 100 to 1000 nM |
| CCCOC(=O)c1c[nH]c2c(=O)[nH]c3ccc(S(=O)(=O)N4CCC(NC)C4)cc3c12 (stereo not drawn) [Compound 168, 8-(3-Methylamino-pyrrolidine-1-sulfonyl)-4-oxo-4,5-dihydro-3H-pyrrolo[2,3-c]quinoline-1-propyl carboxylate hydrochloride] | 100 to 1000 nM |
| CN(C)C(=O)c1c[nH]c2c(=O)[nH]c3ccccc3c12 [Compound 89, N,N-(Dimethyl)-4-oxo-4,5-dihydro-3H-pyrrolo[2,3-c]quinoline-1-carboxamide] | 10000 to 100000 nM |
| CCCOC(=O)c1c[nH]c2c(=O)[nH]c3ccc(S(=O)(=O)N(C[C@H]4CCCN4)C4CC4)cc3c12 [Compound 148, (R)-8-(Cyclopropyl-pyrrolidin-2-ylmethyl-sulfamoyl)-4-oxo-4,5-dihydro-3H-pyrrolo[2,3-c]quinoline-1-propyl carboxylate hydrochloride] | 100 to 1000 nM |
| CCOC(=O)c1c[nH]c2c(=O)[nH]c3ccc(S(=O)(=O)Nc4cccc(F)c4C)cc3c12 [Compound 16, 8-(3-Fluoro-2-methyl-phenylsulfamoyl)-4-oxo-4,5-dihydro-3H-pyrrolo[2,3-c]quinoline-1-ethyl carboxylate] | < 100 nM |
| O=C(NCCc1c[nH]c2ccccc12)c1c[nH]c2c(=O)[nH]c3ccccc3c12 [Compound 84, N-[2-(1H-Indol-3-yl)-ethyl]-4-oxo-4,5-dihydro-3H-pyrrolo[2,3-c]quinoline-1-carboxamide] | 10000 to 100000 nM |
| CC(=O)c1c[nH]c2c(=O)[nH]c3ccccc3c12 [Compound 77, 1-Acetyl-3,5-dihydro-pyrrolo[2,3-c]quinolin-4-one] | 10000 to 100000 nM |
| CCCOC(=O)c1c[nH]c2c(=O)[nH]c3cc(F)c(S(=O)(=O)N(C)CCN(C)C)cc3c12 [Compound 184, 8-[(2-Dimethylamino-ethyl)-methyl-sulfamoyl]-7-fluoro-4-oxo-4,5-dihydro-3H-pyrrolo[2,3-c]quinoline-1-propyl carboxylate] | < 100 nM |
| CCOC(=O)c1c[nH]c2c(=O)[nH]c3ccc(S(=O)(=O)N(C)Cc4ccccc4)cc3c12 [Compound 24, 8-(Benzyl-methyl-sulfamoyl)-4-oxo-4,5-dihydro-3H-pyrrolo[2,3-c]quinoline-1-ethyl carboxylate] | 100 to 1000 nM |
| CCOC(=O)c1c[nH]c2c(=O)[nH]c3ccc(S(N)(=O)=O)cc3c12 [Compound 96, 4-Oxo-8-sulfamoyl-4,5-dihydro-3H-pyrrolo[2,3-c]quinoline-1-ethyl carboxylate] | 100 to 1000 nM |
| CCOC(=O)c1c[nH]c2c(=O)[nH]c3c([N+](=O)[O-])cccc3c12 [Compound 67, 6-Nitro-4-oxo-4,5-dihydro-3H-pyrrolo[2,3-c]quinoline-1-ethyl carboxylate] | 10000 to 100000 nM |
| CCOC(=O)c1c[nH]c2c(=O)[nH]c3ccc(NC(=O)c4ccccc4)cc3c12 [Compound 60, 8-Benzoylamino-4-oxo-4,5-dihydro-3H-pyrrolo[2,3-c]quinoline-1-ethyl carboxylate] | 1000 to 10000 nM |
| CCN(CC)CCOC(=O)c1c[nH]c2c(=O)[nH]c3ccc(F)cc3c12 [Compound 100, 8-Fluoro-4-oxo-4,5-dihydro-3H-pyrrolo[2,3-c]quinoline-1-carboxylate of 2-diethylaminoethyl] | 10000 to 100000 nM |
| C#CCN(CCNC(C)C)S(=O)(=O)c1ccc2[nH]c(=O)c3[nH]cc(C(=O)OCCC)c3c2c1 [Compound 158, 8-[(2-isopropylamino-ethyl)-prop-2-ynyl-sulfamoyl]-4-oxo-4,5-dihydro-3H-pyrrolo[2,3-c]quinoline-1-propyl carboxylate hydrochloride] | 100 to 1000 nM |
| CCCOC(=O)c1c[nH]c2c(=O)[nH]c3ccc(S(=O)(=O)N(CCO)C4CC4)cc3c12 [Compound 174, 8-[Cyclopropyl-(2-hydroxy-ethyl)-sulfamoyl]-4-oxo-4,5-dihydro-3H-pyrrolo[2,3-c]quinoline-1-propyl carboxylate] | < 100 nM |
| CCOC(=O)c1c[nH]c2c(=O)[nH]c3ccc(C(=O)c4ccccc4)cc3c12 [Compound 102, 8-Benzoyl-4-oxo-4,5-dihydro-3H-pyrrolo[2,3-c]quinoline-1-ethyl carboxylate] | 1000 to 10000 nM |
| CN(CC(N)=O)S(=O)(=O)c1ccc2[nH]c(=O)c3[nH]cc(C(=O)O)c3c2c1 [Compound 178, 8-(Carbamoylmethyl-methyl-sulfamoyl)-4-oxo-4,5-dihydro-3H-pyrrolo[2,3-c]quinoline-1-carboxylic acid] | 1000 to 10000 nM |
| CCOC(=O)c1c[nH]c2c(=O)[nH]c3ccc(NS(=O)(=O)c4ccc5ccccc5c4)cc3c12 [Compound 54, 8-(Naphthalene-2-sulfonylamino)-4-oxo-4,5-dihydro-3H-pyrrolo[2,3-c]quinoline-1-ethyl carboxylate] | 10000 to 100000 nM |

Results, then the compound that gave them:

| IC50 | SMILES |
| --- | --- |
| 1000 to 10000 nM | CCOC(=O)c1c[nH]c2c(=O)[nH]c3ccc(-c4cccnc4)cc3c12 [Compound 258, 4-Oxo-8-pyridin-3-yl-4,5-dihydro-3H-pyrrolo[2,3-c]quinoline-1-ethyl carboxylate] |
| 100 to 1000 nM | CCOC(=O)c1c[nH]c2c(=O)[nH]c3ccc(CCC(C)(C)O)cc3c12 [Compound 208, 8-(3-Hydroxy-3-methyl-butyl)-4-oxo-4,5-dihydro-3H-pyrrolo[2,3-c]quinoline-1-ethyl carboxylate] |
| 100 to 1000 nM | CCOC(=O)c1c[nH]c2c(=O)[nH]c3ccc(Sc4ccc(NC(C)=O)cc4)cc3c12 [Compound 223, 8-(4-Acetylaminophenylsulfanyl)-4-oxo-4,5-dihydro-3H-pyrrolo[2,3-c]quinoline-1-ethyl carboxylate] |
| 1000 to 10000 nM | CCOC(=O)c1c[nH]c2c(=O)[nH]c3ccc(-c4ccc(OC)cc4)cc3c12 [Compound 246, 8-(4-Methoxy-phenyl)-4-oxo-4,5-dihydro-3H-pyrrolo[2,3-c]quinoline-1-ethyl carboxylate] |
| 100 to 1000 nM | CCOC(=O)c1c[nH]c2c(=O)[nH]c3ccc(-c4cccc(C#N)c4)cc3c12 [Compound 239, 8-(3-Cyano-phenyl)-4-oxo-4,5-dihydro-3H-pyrrolo[2,3-c]quinoline-1-ethyl carboxylate] |
| 100 to 1000 nM | CCOC(=O)c1c[nH]c2c(=O)[nH]c3ccc(-c4cccc(NS(C)(=O)=O)c4)cc3c12 [Compound 235, 8-(3-Methanesulfonylaminophenyl)-4-oxo-4,5-dihydro-3H-pyrrolo[2,3-c]quinoline-1-ethyl carboxylate] |
| 100 to 1000 nM | CCOC(=O)c1c[nH]c2c(=O)[nH]c3ccc(S(=O)(=O)Cc4ccncc4)cc3c12 [Compound 195, 4-Oxo-8-(pyridin-4-ylmethanesulfonyl)-4,5-dihydro-3H-pyrrolo[2,3-c]quinoline-1-ethyl carboxylate] |
| 1000 to 10000 nM | COC(=O)c1c[nH]c2c(=O)[nH]c3ccc(S(=O)(=O)NN4CC5CCCC5C4)cc3c12 (stereo not drawn) [Compound 192, 8-(Hexahydro-cyclopenta[c]pyrrol-2-ylsulfamoyl)-4-oxo-4,5-dihydro-3H-pyrrolo[2,3-c]quinoline-1-methyl carboxylate] |
| 1000 to 10000 nM | CCOC(=O)c1c[nH]c2c(=O)[nH]c3ccc(-c4csc(-c5ccccc5)n4)cc3c12 [Compound 279, 4-Oxo-8-(2-phenyl-thiazol-4-yl)-4,5-dihydro-3H-pyrrolo[2,3-c]quinoline-1-ethyl carboxylate] |
| 100 to 1000 nM | CCOC(=O)c1c[nH]c2c(=O)[nH]c3ccc(S(=O)(=O)C4CCCCC4)cc3c12 [Compound 197, 8-Cyclohexanesulfonyl-4-oxo-4,5-dihydro-3H-pyrrolo[2,3-c]quinoline-1-ethyl carboxylate] |
| 1000 to 10000 nM | COC(=O)c1c[nH]c2c(=O)[nH]c3ccc(S(=O)(=O)NN4CCCCC4)cc3c12 [Compound 191, 4-Oxo-8-(piperidin-1-ylsulfamoyl)-4,5-dihydro-3H-pyrrolo[2,3-c]quinoline-1-methyl carboxylate] |
| 100 to 1000 nM | CCCOC(=O)c1c[nH]c2c(=O)[nH]c3ccc(I)cc3c12 [Compound 210, 8-Iodo-4-oxo-4,5-dihydro-3H-pyrrolo[2,3-c]quinoline-1-propyl carboxylate] |
| 1000 to 10000 nM | CCOC(=O)c1c[nH]c2c(=O)[nH]c3cc(Cl)ccc3c12 [Compound 216, 7-Chloro-4-oxo-4,5-dihydro-3H-pyrrolo[2,3-c]quinoline-1-ethyl carboxylate] |
| 100 to 1000 nM | CCOC(=O)c1c[nH]c2c(=O)[nH]c3ccc(-c4ccc5[nH]ccc5c4)cc3c12 [Compound 252, 8-(1H-Indol-5-yl)-4-oxo-4,5-dihydro-3H-pyrrolo[2,3-c]quinoline-1-ethyl carboxylate] |
